For series [1] the following is noted: 'it is believed'; basis not stated; cited from earlier work.
In series [2] the test system is Human corneal epithelial cells (hCEC). Put plainly: BrdU cell proliferation ELISA. Type of series: cell-based. The method, then:
(§1) Proliferation of hCEC was determined using a 5-bromo-2'-deoxyuridine (BrdU) ELISA in accordance with the manufacturers' recommendations (Merck KGaA, Darmstadt, Germany). In brief, approximately 7,000 cells were seeded onto a 96-well cell culture plate and incubated for 24h to achieve complete adherence of the cells. After 24 hours of incubation with 100 µl of corneal epithelial cell growth medium without its' supplement mix, hCECs were treated with eriocitrin and/or SCH772984 (Selleckchem, Houston, TX, USA), an inhibitor of ERK1/2 phosphorylation, both dissolved in DMSO. Following another 24 hours of incubation with BrdU labeling solution, cells were fixed and incubated with anti-BrdU antibodies according to the manufacturer's recommendations. BrdU incorporation into the DNA of hCECs was quantified by absorbance measurement at 450 nm.
(An ELISA detects its analyte on a solid surface through an enzyme-linked reagent.)

The conditions of series [3]: 80°C for 30 min, pH 7; cited from earlier work.
The subject of series [4] is Human corneal epithelial cells (hCEC). Description: Cell scratch (wound healing / migration) assay in vitro. Type of series: cell-based. As to conditions: 10 µM, Fig. 2. The method, then:
To analyze hCEC migration in vitro, cells were cultured in corneal epithelial cell growth medium with supplement mix until confluence of the cells of a 6-well cell culture plate. Following an incubation period of 24 hours in cell culture medium without supplements, 5 linear scratches were performed in each well using a 200 µl pipette tip (Eppendorf AG, Hamburg, Germany). The hCECs were then incubated prospectively under treatment with eriocitrin or DMSO as a control for up to 48 hours. Reference images were acquired at the beginning of the incubation period using the phase contrast mode on an Axio Observer 7 (Carl Zeiss AG, Jena, Germany). Every 24 hours, follow-up images of different scratch sections were acquired. The size of the wound area was analyzed using a semi-automated analysis tool in ImageJ 1.53a (National Institute of Health, Bethesda, MD, USA).

Series [5] is described as follows: WST-1 cell viability assay. Type of series: cell-based, Human. As to conditions: human, corneal epithelial cells, 0.5 µM, DMSO control = 100 ± 12%, mean ± SD. The method, then: (§2) Human corneal epithelial cells (hCEC; SCCE016; Merck Millipore, Burlington, MA, USA) were cultured in corneal epithelial cell growth medium with supplement mix (LGC Standards, Teddington, United Kingdom). Approximately 10,000 hCECs were seeded onto each well of a 96-well cell-culture dishes (NUNC, Langenselbold, Germany). After 24 hours of incubation with 100 µl of corneal epithelial cell growth medium without its' supplement mix (LGC Standards, Teddington, United Kingdom), hCECs were treated with different concentrations of eriocitrin (EC; Selleckchem, Houston, TX, USA) dissolved in dimethyl sulfoxide (DMSO; Carl Roth AG, Karlsruhe, Germany). Control groups were treated with DMSO only. Following another 72 hours of incubation, the cells were incubated with the water-soluble tetrazolium salt (WST-1; Hoffmann-La Roche AG, Basel, Switzerland) solution for 30 minutes. Substrate turnover was measured with an ELISA reader at 450 nm (Spectramax 190; Molecular Devices, Sunnyvale, CA, USA) and a reference at 690 nm.
For orientation: Formazan colour is commonly taken as a measure of viable cells.

The test system of series [6] is Human corneal epithelial cells (hCEC). Description: WST-1 cell viability assay. As to conditions: any of the concentrations tested, 72 hours, compared to DMSO control; Fig. 1A. Type of series: cell-based. The method, then:
as §2

For series [7] the test system is unchanged. Description: Oxidative stress model (H2O2) with BrdU proliferation assay. As to conditions: 24 h, Fig. 3, read-out: cell proliferation. Type of series: cell-based. The method, then:
as §1
To determine potential anti-oxidative effects of eriocitrin, hCECs were incubated and treated analogous to the above-mentioned BrdU ELISA with minor modifications. To induce oxidative stress, hydrogen peroxide (H2O2) in a concentration of 100 µM was added to the treatment groups and an additional H2O2-only group was tested. Following another incubation of the hCECs for 24 hours, the BrdU assay was further performed according to the description above.

The subject of series [8] is ERK1/2. Description: Western blot of ERK1/2 phosphorylation in corneal epithelial cells. The format is cell-based. As to conditions: Homo sapiens, Corneal epithelial cell, 1 hour, compared to DMSO-only control, Fig. 4, read-out: pERK1/2 protein expression. The method, then: To analyze whether eriocitrin activates the extracellular signal-regulated kinase-1 and -2 (ERK1/2), human corneal epithelial cells were treated with 10 µM eriocitrin for 1 hour. Corneal proteins were isolated in radioimmunoprecipitation assay (RIPA) buffer. Protein concentration was measured with a bicinchoninic acid (BCA) assay according to the manufacturer's instructions (Thermo Fisher Scientific, Waltham, MA, USA). Up to 25 µg of total proteins were subjected to 8% SDS-PAGE. Following gel electrophoresis proteins were transferred onto a polyvinylidine fluoride (PVDF) membrane (Roche Holding, Basel, Switzerland) by semidry blotting. After blocking with 3% low fat milk in PBS-Tween (PBS-T) for one hour, membranes were incubated overnight with a rabbit-anti-pERK1/2 (1:1000; Cell Signaling Technology, Danvers, MA, USA) in PBS-T with 0.3% low fat milk. Alkaliphosphatase-conjugated mouse-anti-rabbit antibodies (1:1000, Jackson Immunoresearch Europe, UK) were used as secondary antibodies. Antibody hybridization was visualized using the CDP-Star substrate (Thermo Fisher) and documented with the Western Blot Reader iBright CL 1000 (Thermo Fisher). As a loading control, AP-conjugated anti-alpha-tubulin antibodies were used (1:1000, Merck). The densitometry of Western blot analyses was performed with the iBright Image software v.1.4.0 software (Thermo Fisher).
A general note: Immunoblotting shows a protein as a band on a membrane.

The values that follow come from patent publication EP4302767A1, “OPHTHALMIC COMPOSITION COMPRISING ERIOCITRIN” (Skeye Pharma GmbH, priority 2022, dated 2024).

Regarding `COc1cc(O)c(CC=C(C)C)c(O)c1C(=O)/C=C/c1ccc(O)cc1` [xanthohumol, 1-[2,4-Dihydroxy-6-methoxy-3-(3-methyl-but-2-enyl)-phenyl]-3-(4-hydroxyphenyl)-propenon], the first pka entry in series [1] is on record as “about 7”.

As for `O=C(Nc1ccc2[nH]nc(-c3ccncc3)c2c1)[C@@H]1CCN(CC(=O)N2CCN(c3ccc(-c4ncccn4)cc3)CC2)C1` [SCH772984, reference compound], the “effect on eriocitrin-enhanced proliferation of corneal epithelial cells” value in series [2] (100 nM added to 10 µM eriocitrin, 24 hours, Fig. 5) is recorded as “completely blocked”.

For `C[C@@H]1O[C@@H](OC[C@H]2O[C@@H](Oc3cc(O)c4c(c3)O[C@H](c3ccc(O)c(O)c3)CC4=O)[C@H](O)[C@@H](O)[C@@H]2O)[C@H](O)[C@H](O)[C@H]1O` [eriocitrin, (2S)-3',4',5-trihydroxy-7-[α-L-rhamnopyranosyl-(1→6)-β-D-glucopyranosyloxy]flavan-4-one], the “eriocitrin molecules remain intact” value in series [3] is 60%. Further, the “scratched hCEC area, difference to DMSO-only control” value in series [4] (24 hours of incubation, p > 0.9999) is “slight difference”. Besides, the remaining wound area in series [4] (48 hours of incubation, control 71.9 ± 7.7%) is 64.5 ± 7.8%. Also, in series [5], the viability (usually a read-out of living cells in per cent, often relative to untreated cells) at 72 h, 0.5 µM was 110 ± 14%. Moreover, the “toxic effects on corneal epithelial cell viability” value in series [6] is reported as “did not show any toxic effects”. The activity at 5 µM in series [7] (5 µM added to 100 µM H2O2, 24 hours, H2O2 control 81 ± 12%) was 113 ± 9%; in series [7] (5 µM, 24 hours, without H2O2, compared to DMSO control), 117 ± 8%; in series [2] (Homo sapiens, HCEC, 5 µM, 24 hours, DMSO control = 100 ± 17%, Fig. 1B) it was 143 ± 36%. The activity at 10 µM in series [7] (10 µM added to 100 µM H2O2, 24 hours, H2O2 control 81 ± 12%) worked out at 115 ± 18%; in series [7] (10 µM, 24 hours, without H2O2, compared to DMSO control), 125 ± 18%; in series [2] (Homo sapiens, HCEC, 10 µM, 24 hours, DMSO control = 100 ± 17%, Fig. 1B) it was 162 ± 49%. Also, the fold induction at 10 µM in series [8] was 1.8 ± 0.9. The proliferation in series [2] (10 µM eriocitrin plus 100 nM SCH772984, 24 hours, Fig. 5) amounted to 104 ± 9%; in series [2] (10 µM, 24 hours, compared to DMSO treated controls, Fig. 5), 129 ± 11%. The activity at 0.5 µM in series [2] (Homo sapiens, HCEC, 0.5 µM, 24 hours, DMSO control = 100 ± 17%, Fig. 1B) amounted to 118 ± 39%. Moreover, in series [2] (Homo sapiens, HCEC, 1 µM, 24 hours, DMSO control = 100 ± 17%, Fig. 1B), the activity at 1 µM was found to be 126 ± 33%. Moreover, the activity at 2.5 µM in series [2] (Homo sapiens, HCEC, 2.5 µM, 24 hours, DMSO control = 100 ± 17%, Fig. 1B) stood at 127 ± 29%.
